Results as given in BindingDB's records for doi:10.1074/jbc.M606873200 (Incyte, 2006).

Molecular target: T1, Tyrosine-protein phosphatase non-receptor type 1 [1-298] (Homo sapiens, UniProt P18031)
T1 construct: 1-298
T1 sequence (P18031 whole entry): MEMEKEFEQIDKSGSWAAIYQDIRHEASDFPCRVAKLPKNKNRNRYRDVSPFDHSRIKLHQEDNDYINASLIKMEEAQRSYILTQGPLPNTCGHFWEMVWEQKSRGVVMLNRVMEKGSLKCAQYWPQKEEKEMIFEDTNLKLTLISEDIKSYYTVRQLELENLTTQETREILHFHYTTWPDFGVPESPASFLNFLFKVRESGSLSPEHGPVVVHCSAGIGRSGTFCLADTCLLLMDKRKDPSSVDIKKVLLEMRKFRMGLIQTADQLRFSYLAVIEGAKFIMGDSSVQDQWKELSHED
Test: Phosphatase Inhibition Assay
Details: pH 7; 22 °C

SMILES	IC50
CC(=O)N[C@@H](Cc1ccccc1)C(=O)N[C@@H](Cc1ccc(C2=CC(=O)NS2(=O)=O)cc1)C(N)=O [(2S)-N-[(1S)-1-carbamoyl-2-[4-(1,1,3-trioxo-2,3-dihydro-1,2-thiazol-5-yl)phenyl]ethyl]-2-acetamido-3-phenylpropanamide]	3 µM
CC(=O)N[C@@H](Cc1ccccc1)C(=O)N[C@@H](Cc1ccc([C@H]2CC(=O)NS2(=O)=O)cc1)C(N)=O [(2S)-N-[(1S)-1-carbamoyl-2-{4-[(5R)-1,1,3-trioxo-1,2-thiazolidin-5-yl]phenyl}ethyl]-2-acetamido-3-phenylpropanamide]	16 µM
